# Laboratory results taken from patent US20240041050A1, “CELL PENETRATING PEPTIDE MEDIATED RNA TRANSDUCTION WITHIN INSECT CELLS” (PIONEER HI-BRED INTERNATIONAL, INC., priority 2020, published 2024).
# Peptide text beside a SMILES is read from it.
# How the values were obtained:
# Sf9 cells = assay: CPP-mediated delivery of mCherry mRNA cargo into insect cells; type: cell-based, Spodoptera frugiperda; conditions: complex of 75 μM unlabeled CPP and 10 μg mCherry mRNA, overnight
# Source text: (§1) Sample preparation and analysis methods were based on those previously reported (Jafari et al. (201 4) “Serum stability and physicochemical characterization of a novel amphipathic peptide C6M 1 for siRNA delivery”, PLoS One, 9(5), e97797; and Gillet et al. (2017) “Investigating Engineered Ribonucleoprotein Particles to Improve Oral RNAi Delivery in Crop Insect Pests”, Frontiers in Physiology, 8(256), doi: 10.3389/fphys.2017.00256). Reagents are described in Examples 1 and 2. Nanocomplex samples were prepared in one of several ways, depending on type of CPP, RNA, or assay. […] Reaction volumes added to cells were 6.38 μL CPP and 6.38 μL mRNA. Final optimal CPP concentration was assessed by amount of fluorescent signal apparent within cells. For insect cell-based assays with CPP-YFP·Cy3-dsRNA or CPP·dsRNA, first a complex formation solution was prepared in molecular biology-grade water containing 90 mg·mL^−1 maltose, 9 mg·mL^−1 mannitol, 392. 16 mM CaCI2, pH 7.0, and vacuum-filtered using Corning™ Disposable Vacuum Filter and Storage System containing a cellulose nitrate filter. Then, increasing amounts of CPP-YFP were added to Cy3-dsRNA, from a molar ratio (CPP-YFP:Cy3-dsRNA) of 1:4 through 8:1 and incubated protected from light at 25° C. for 90 minutes prior to assessment via gel shift and DLS. Reaction volumes added per cell well were comprised of 17 μL reaction solution, 1 μL CPP, 1 μL dsRNA, and 1 μL molecular biology grade water; reaction sizes for larger total volumes were increased in increments of 20 μL and component ratio was held constant to maintain an ionic strength of […]. Final optimal molar ratio selected for cell experiments were determined by increase of the apparent size of the Cy3-dsRNA band on a native agarose gel (FIG. 2A and FIG. 2B), and/or appearance and increase in size of the complex peak detected by a Zetasizer Ultra (Malvern Panalytical, Malvern, United Kingdom) DLS instrument (FIG. 2C). […] Final optimal BAPC1 concentration was assessed by amount of fluorescent signal apparent within cells. […]
# [1] = tested on: western corn rootworm (WCR) larvae; assay: Oral toxicity screening of CPPs in artificial diet; type: in vivo; conditions: first instar WCR larvae, mortality and stunting
# Method: Briefly, CPPs were incorporated into standard WCR artificial diet in 96-well microtiter plate format. A 25 μL aliquot of dosing solution was combined with 75 μL molten low-melt WCR diet and shaken on an orbital shaker to mix. Once diet solidified, preconditioned first instar WCR (freshly-hatched insects placed on neutral diet for 24 hours prior to transfer to test diet) were added to the diet plates at a rate of 1 insect·well^−1. Plates were placed inside an incubator (Percival Scientific, Inc., Perry, IA) set to 27° C., 65% RH, and a 24-hour dark cycle. The assay was scored for mortality and stunting affects after 7 and 12 days, without diet refresh, on a 0-3 scale, where 3=mortality, 2=severe stunting, 1=stunting, 0=no affect when compared with untreated larvae. The assay was repeated three times and end-results were tabulated using all three replicates and converted to percentages (Table 5).
# DU182A cells = assay: CPP-mediated delivery of mCherry mRNA cargo into insect cells; type: cell-based, Diabrotica undecimpunctata; conditions: complex of 75 μM unlabeled CPP and 10 μg mCherry mRNA, overnight
# Source text: as §1
# DvWL2 cells = assay: as above; type: cell-based, Diabrotica virgifera virgifera; conditions: complex of 75 μM unlabeled CPP and 10 μg mCherry mRNA, overnight
# Source text: as §1
structure (smiles),measurement,setting,value
"N=C(N)NCCC[C@H](NC(=O)[C@H](Cc1c[nH]c2ccccc12)NC(=O)[C@H](CCCNC(=N)N)NC(=O)[C@@H](N)CS)C(=O)N[C@@H](Cc1c[nH]c2ccccc12)C(=O)N[C@@H](CCCCN)C(=O)N[C@@H](CS)C(=O)N[C@@H](CS)C(=O)N[C@@H](CCCCN)C(=O)N[C@@H](CCCCN)C(=O)O [CyLoP-1, CRWRWKCCKK] (H-CRWRWKCCKK-OH; N-terminus and C-terminus assumed)",fluorescent protein translated from delivered mCherry mRNA (fluorescent signal inside cells),Sf9 cells,Translation of mRNA into a functional fluorescent protein occurred
same,Affected (%),[1]; 0.195 ppm in artificial diet,0%
same,Affected (%),[1]; 0.391 ppm in artificial diet,0%
same,Affected (%),[1]; 0.781 ppm in artificial diet,0%
same,Affected (%),[1]; 1.56 ppm in artificial diet,0%
same,Affected (%),[1]; 3.13 ppm in artificial diet,0%
same,Affected (%),[1]; 6.25 ppm in artificial diet,0%
same,Affected (%),[1]; 12.5 ppm in artificial diet,0%
same,Affected (%),[1]; 25.0 ppm in artificial diet,0%
same,Affected (%),[1]; 50.0 ppm in artificial diet,0%
same,Affected (%),[1]; 100 ppm in artificial diet,0%
same,Affected (%),[1]; 200 ppm in artificial diet,0%
same,fluorescent protein translated from delivered mCherry mRNA (fluorescent signal inside cells),DU182A cells,Translation of mRNA into a functional fluorescent protein occurred
same,fluorescent protein translated from delivered mCherry mRNA (fluorescent signal inside cells),DvWL2 cells,Translation of mRNA into a functional fluorescent protein occurred
